For one experiment, the system named is HL-1. Briefly: protection of cardiomyocytes from stress damage, SAR follow-up, cell-based, panel, H9c2 and HL-1, H2O2, 2-deoxyglucose, ATP luminescence (AID 651642).
Another experiment has as its system H9c2. Described as above.
The mark [1] stands for this setting: H9c2/HL-1 cardiomyocyte 2-deoxyglucose damage, mean of runs, with 2-deoxyglucose, mean IC50 across panel.
[2] abbreviates: H9c2/HL-1 cardiomyocyte 2-deoxyglucose damage, run 1, with 2-deoxyglucose.
[3] abbreviates: H9c2/HL-1 cardiomyocyte 2-deoxyglucose damage, run 2, with 2-deoxyglucose.
Setting [4] is: H9c2/HL-1 cardiomyocyte 2-deoxyglucose damage, run 3, with 2-deoxyglucose.
Where [5] appears, read: H9c2/HL-1 cardiomyocyte 2-deoxyglucose damage, run 4, with 2-deoxyglucose.
The mark [6] stands for this setting: H9c2/HL-1 cardiomyocyte H2O2 oxidative damage, mean of runs, with H2O2, mean IC50 across panel.
Where [7] appears, read: H9c2/HL-1 cardiomyocyte H2O2 oxidative damage, run 1, with H2O2.
The mark [8] stands for this setting: H9c2/HL-1 cardiomyocyte H2O2 oxidative damage, run 2, with H2O2.
Where [9] appears, read: H9c2/HL-1 cardiomyocyte H2O2 oxidative damage, run 3, with H2O2.
Where [10] appears, read: H9c2/HL-1 cardiomyocyte H2O2 oxidative damage, run 4, with H2O2.

pIC50: −log10 of the molar value.

Usually pIC50 stands for −log10 of the IC50, conventionally taken in molar units. High values mean a small IC50, low ones a large IC50. Regarding `COc1cc(-c2cc(C(=O)NCC(=O)Nc3cccc(C(C)=O)c3)c3cc(C)ccc3n2)cc(OC)c1OC`, the pIC50 in the experiment on HL-1 (setting [1]) was 4.64; with HL-1 (setting [2]) it was 4.87; in the experiment with HL-1 (setting [3]), 4.83; in the experiment with HL-1 (setting [4]), 4.53; in the experiment with HL-1 (setting [5]), 4.47; in the experiment on HL-1 (setting [6]), 4.43. Further, the pIC50 with HL-1 (setting [7]) was 4.46; with HL-1 (setting [8]) it was 4.35; in the experiment with HL-1 (setting [9]) it was 4.59; with HL-1 (setting [10]) it was 4.37; in the experiment with H9c2 (setting [2]), less than 4.10; in the experiment with H9c2 (setting [3]), less than 4.10. The pIC50 is 4.70 with H9c2 (setting [4]); 4.61 in the experiment on H9c2 (setting [5]); 5.00 in the experiment on H9c2 (setting [6]); 4.90 with H9c2 (setting [7]); 4.87 in the experiment on H9c2 (setting [8]); 5.23 in the experiment on H9c2 (setting [9]). The compound further showed a pIC50 in the experiment with H9c2 (setting [10]) of 5.07.
Consider `CCOC(=O)c1cccc(NC(=O)CNC(=O)c2cc(-c3cc(OC)c(OC)c(OC)c3)nc3ccc(Br)cc23)c1`, for which the pIC50 with HL-1 (setting [1]) was 5.73; with HL-1 (setting [2]), 5.90; in the experiment with HL-1 (setting [3]), 5.85; with HL-1 (setting [4]), 5.71; in the experiment with HL-1 (setting [5]) it was 5.54; in the experiment with HL-1 (setting [6]) it was 5.69. Further, the pIC50 in the experiment with HL-1 (setting [7]) is 5.64; in the experiment with HL-1 (setting [8]), 5.59; with HL-1 (setting [9]), 5.90; in the experiment with HL-1 (setting [10]), 5.69; with H9c2 (setting [1]) it was 5.34; with H9c2 (setting [2]), 5.33. The pIC50 in the experiment with H9c2 (setting [3]) was 5.19; with H9c2 (setting [4]), 5.49; with H9c2 (setting [5]) it was 5.43; in the experiment with H9c2 (setting [6]), 5.87; with H9c2 (setting [7]) it was 5.84; in the experiment with H9c2 (setting [8]) it was 5.76. For the same compound, the pIC50 in the experiment with H9c2 (setting [9]) was 6.02; in the experiment with H9c2 (setting [10]), 5.91.
Regarding `COc1cc(-c2cc(C(=O)Nc3cccc(-c4nn[nH]n4)c3)c3ccccc3n2)cc(OC)c1OC`, the pIC50 was 4.32 in the experiment on HL-1 (setting [1]); 4.56 in the experiment with HL-1 (setting [2]); 4.24 with HL-1 (setting [3]); 4.31 in the experiment with HL-1 (setting [4]); 4.25 in the experiment on HL-1 (setting [5]); 4.60 with HL-1 (setting [6]). The pIC50 with HL-1 (setting [7]) was 4.58; with HL-1 (setting [8]), 4.54; with HL-1 (setting [9]), 4.82; with HL-1 (setting [10]), 4.53; with H9c2 (setting [1]), less than 4.10; in the experiment with H9c2 (setting [2]), less than 4.10. The pIC50 is less than 4.10 with H9c2 (setting [3]); less than 4.10 with H9c2 (setting [4]); less than 4.10 in the experiment with H9c2 (setting [5]); 4.68 in the experiment with H9c2 (setting [6]); 4.62 with H9c2 (setting [7]); 4.62 in the experiment with H9c2 (setting [8]). For the same compound, the pIC50 in the experiment with H9c2 (setting [9]) is 4.79; with H9c2 (setting [10]), 4.73.
Turning to `COc1cc(-c2cc(C(=O)NCC(=O)Nc3cccc(C(C)=O)c3)c3cc(Br)ccc3n2)cc(OC)c1OC`, the pIC50 in the experiment on HL-1 (setting [1]) is 5.42; in the experiment with HL-1 (setting [2]), 5.61; with HL-1 (setting [3]), 5.33; with HL-1 (setting [4]), 5.47; with HL-1 (setting [5]), 5.31; in the experiment on HL-1 (setting [6]) it was 5.48. The pIC50 was 5.45 in the experiment with HL-1 (setting [7]); 5.43 with HL-1 (setting [8]); 5.57 in the experiment on HL-1 (setting [9]); 5.47 with HL-1 (setting [10]); 5.19 in the experiment with H9c2 (setting [1]); 5.09 in the experiment on H9c2 (setting [2]). Further, the pIC50 was 5.07 with H9c2 (setting [3]); 5.35 in the experiment on H9c2 (setting [4]); 5.33 in the experiment with H9c2 (setting [5]); 5.90 in the experiment on H9c2 (setting [6]); 5.83 in the experiment on H9c2 (setting [7]); 5.83 in the experiment on H9c2 (setting [8]). The values for the pIC50 with H9c2 (setting [9]) and in the experiment on H9c2 (setting [10]) were 5.99 and 5.98, respectively.
On to `COc1cc(-c2cc(C(=O)Nc3cccc(C(=O)N4CCOCC4)c3)c3ccccc3n2)cc(OC)c1OC`, for which the pIC50 in the experiment on HL-1 (setting [1]) was 4.72; in the experiment on HL-1 (setting [2]), 5.09; in the experiment with HL-1 (setting [3]), 4.95; in the experiment on HL-1 (setting [4]), 4.56; with HL-1 (setting [5]), 4.54; with HL-1 (setting [6]), 4.83. Besides, the pIC50 was 4.89 in the experiment with HL-1 (setting [7]); 4.78 in the experiment with HL-1 (setting [8]); 4.97 with HL-1 (setting [9]); 4.74 with HL-1 (setting [10]); less than 4.10 in the experiment on H9c2 (setting [2]); 4.22 in the experiment on H9c2 (setting [3]). Further, the pIC50 in the experiment on H9c2 (setting [4]) is less than 4.10; in the experiment on H9c2 (setting [5]), less than 4.10; in the experiment on H9c2 (setting [6]), 5.23; in the experiment with H9c2 (setting [7]) it was 5.21; in the experiment on H9c2 (setting [8]), 5.11; in the experiment with H9c2 (setting [9]), 5.33. The same compound gave a pIC50 in the experiment with H9c2 (setting [10]) of 5.29.
